Measurements: paper PMC11784839, “Monoaminergic neurotransmitters are bimodal effectors of tau aggregation” (Science Advances, 2025)

Target: tau (Homo sapiens, UniProt P10636)
Assay: MCE Phenols Library screening, tau biosensor cell seeding assay (AvZ)
Format: cell-based
Conditions: for Z repl 1 / Z Repl 2: Z score; for Z repl 1 / raw data 1: replicate 1; for Z Repl 2 / raw data 2: replicate 2
[1] = average Z score of the two replicates, tau seeding
[2] = average Z score of the two replicates, tau biosensor seeding, MCE Phenols Library screen
[3] = average Z score of the two replicates, MCE Phenols Library screen
[4] = average puncta of the two replicates
[5] = average Z score of two replicates, Phenols Library screen

Sequence of tau (P10636 623-695 limits assumed): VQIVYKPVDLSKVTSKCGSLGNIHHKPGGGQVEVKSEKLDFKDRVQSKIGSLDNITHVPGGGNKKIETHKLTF

SMILES	Z repl 1	Z Repl 2	av Z [1]	av puncta (average of raw data 1 and 2)	raw data 1 (puncta)	raw data 2 (puncta)	av Z [2]	av Z [3]	av puncta [4]	raw data 1 (raw puncta)	raw data 2 (raw puncta)	av Z [5]
COc1ccc2cc1Oc1ccc(cc1)C[C@H]1c3cc(c(OC)cc3CCN1C)Oc1c(O)c(OC)cc3c1[C@@H](C2)N(C)CC3 [(R)-Fangchinoline]	0.226	0.65	0.438	24385.2	29066.8	19703.5	–	–	–	–	–	–
CC[C@@]1(O)C(=O)OCc2c1cc1n(c2=O)Cc2cc3cc(O)ccc3nc2-1 [(S)-10-Hydroxycamptothecin]	1.738	1.796	–	39581.6	47219.2	31944.1	1.767	–	–	–	–	–
CC(C)=CC[C@H](OC(=O)C=C(C)C)C1=CC(=O)c2c(O)ccc(O)c2C1=O [?,?-Dimethylacrylalkannin]	0.881	0.516	0.698	27599.4	36919.9	18278.8	–	–	–	–	–	–
OC[C@H]1O[C@@H](Oc2ccc(O)cc2)[C@H](O)[C@@H](O)[C@@H]1O [?-Arbutin]	1.599	0.945	–	34202.6	45542.6	22862.6	1.272	–	–	–	–	–
CC(C)=CC[C@@H](OC(=O)CC(C)(C)O)C1=CC(=O)c2c(O)ccc(O)c2C1=O [?-Hydroxyisovalerylshikonin]	-0.737	-0.673	–	–	17504.1	5582.9	–	-0.705	11543.5	–	–	–
Cc1cc(O)c(C)c2c1O[C@](C)(CCC[C@H](C)CCC[C@H](C)CCCC(C)C)CC2 [?-Tocopherol]	0.056	-0.786	–	–	–	–	–	-0.365	15701	27026	4376.13	–
Cc1c(C)c2c(c(C)c1O)CC[C@@](C)(CCC[C@H](C)CCC[C@H](C)CCCC(C)C)O2 [?-Vitamin E]	-0.172	-0.481	–	–	–	–	–	-0.326	15958	24288.2	7627.82	–
COc1ccc(-c2cc(=O)c3c(O)cc(O)cc3o2)cc1 [Acacetin]	-0.027	-0.222	–	18211.5	26028.3	10394.7	–	–	–	–	–	-0.124
CC(=O)O[C@@H](CC=C(C)C)C1=CC(=O)c2c(O)ccc(O)c2C1=O [Acetylalkannin]	-0.759	-0.292	–	–	17242.7	9643.51	–	-0.525	13443.1	–	–	–
CC(=O)O[C@H](CC=C(C)C)C1=CC(=O)c2c(O)ccc(O)c2C1=O [Acetylshikonin]	0.563	1.037	–	28473.3	33102.4	23844.2	0.8	–	–	–	–	–
O=C(OCC1=C[C@@H](O)[C@@H]2C=CO[C@@H](O[C@@H]3O[C@H](CO)[C@@H](O)[C@H](O)[C@H]3O)[C@H]12)c1ccc(O)cc1 [Agnuside]	-0.301	0.292	–	19312.6	22737.6	15887.6	–	–	–	–	–	-0.004
CCCC(=O)c1c(O)c(Cc2c(O)c(Cc3c(O)c(C)c(OC)c(C(=O)CCC)c3O)c(O)c(C(=O)[C@@H](C)CC)c2O)c(O)c(C)c1OC [Agrimol B]	-1.539	-0.722	–	6464.64	7875.9	5053.37	–	-1.13	–	–	–	–
O=C1c2ccccc2C(=O)c2c1ccc(O)c2O [Alizarin]	-0.67	-0.047	–	–	–	–	–	-0.359	15284.3	18305.8	12262.8	–
CC(C)=CCc1c2ccoc2c(O)c2oc(=O)ccc12 [Alloimperatorin]	0.545	-0.475	–	20292.7	32890.3	7695.05	–	–	–	–	–	0.035
O=C1c2cc(CO)cc(O)c2C(=O)c2c(O[C@@H]3O[C@H](CO)[C@@H](O)[C@H](O)[C@H]3O)cccc21 [Aloe-emodin-8-O-?-D-glucopyranoside]	-0.712	-0.064	–	–	–	–	–	-0.388	14937.3	17796.3	12078.3	–
COc1cc(C)c2c(=O)cc(C[C@@H](C)O)oc2c1[C@@H]1O[C@H](CO)[C@@H](O)[C@H](O)[C@H]1OC(=O)/C=C/c1ccc(O)cc1 [Aloeresin D]	-0.796	-0.937	–	9774.18	16789.2	2759.19	–	-0.867	–	–	–	–
CC(=O)Cc1cc(=O)c2c(C)cc(O)c([C@@H]3O[C@H](CO)[C@@H](O)[C@H](O)[C@H]3O)c2o1 [Aloesin]	0.457	-0.177	0.14	21354.9	31839.2	10870.5	–	–	–	–	–	–
O=C1c2c(O)cccc2[C@@H]([C@@H]2O[C@H](CO)[C@@H](O)[C@H](O)[C@H]2O)c2cc(CO)cc(O)c21 [Aloin B]	0.434	-0.315	–	20479	31560.5	9397.5	–	–	–	–	–	0.059
